Structures are written as SMILES.

The species named for this assay is Oryctolagus cuniculus. Nature of the assay: Ability to stimulate contraction of the rabbit iris sphincter smooth muscle using smooth muscle contraction assay. It counts as functional. The settings on record: Muscle tissue.
In the case of `CSCC[C@H](NC(=O)[C@H](CC(C)C)NC(=O)CNC(=O)[C@@H](NC(=O)[C@@H](NC(=O)[C@H](CCC(N)=O)NC(=O)[C@H](CCC(N)=O)NC(=O)[C@@H]1CCCN1C(=O)[C@H](CCCCN)NC(=O)[C@@H]1CCCN1C(=O)[C@@H](N)CCCN=C(N)N)[C@H](C)c1ccccc1)[C@@H](C)c1ccccc1)C(N)=O`, the EC50 (commonly the concentration at which the effect is half-maximal) worked out at 0.28 nM. Next, `CSCC[C@H](NC(=O)[C@H](CC(C)C)NC(=O)CNC(=O)[C@@H](NC(=O)[C@H](Cc1ccccc1)NC(=O)[C@H](CCC(N)=O)NC(=O)[C@H](CCC(N)=O)NC(=O)[C@@H]1CCCN1C(=O)[C@H](CCCCN)NC(=O)[C@@H]1CCCN1C(=O)[C@@H](N)CCCN=C(N)N)[C@H](C)c1ccccc1)C(N)=O`: 5.76 nM. `CSCC[C@H](NC(=O)[C@H](CC(C)C)NC(=O)CNC(=O)[C@H](Cc1ccccc1)NC(=O)[C@@H](NC(=O)[C@H](CCC(N)=O)NC(=O)[C@H](CCC(N)=O)NC(=O)[C@@H]1CCCN1C(=O)[C@H](CCCCN)NC(=O)[C@@H]1CCCN1C(=O)[C@@H](N)CCCN=C(N)N)[C@@H](C)c1ccccc1)C(N)=O` showed a 50% effective concentration (EC50) of 0.59 nM.

Take `CSCC[C@H](NC(=O)[C@H](CC(C)C)NC(=O)CNC(=O)[C@@H](NC(=O)[C@@H](NC(=O)[C@H](CCC(N)=O)NC(=O)[C@H](CCC(N)=O)NC(=O)[C@@H]1CCCN1C(=O)[C@H](CCCCN)NC(=O)[C@@H]1CCCN1C(=O)[C@@H](N)CCCN=C(N)N)[C@@H](C)c1ccccc1)[C@H](C)c1ccccc1)C(N)=O`: a half-maximal response (EC50) required 0.58 nM. In the case of `CSCC[C@H](NC(=O)[C@H](CC(C)C)NC(=O)CNC(=O)[C@@H](NC(=O)[C@H](Cc1ccccc1)NC(=O)[C@H](CCC(N)=O)NC(=O)[C@H](CCC(N)=O)NC(=O)[C@@H]1CCCN1C(=O)[C@H](CCCCN)NC(=O)[C@@H]1CCCN1C(=O)[C@@H](N)CCCN=C(N)N)[C@@H](C)c1ccccc1)C(N)=O` it was 0.13 nM; in that of `CSCC[C@H](NC(=O)[C@H](CC(C)C)NC(=O)CNC(=O)[C@H](Cc1ccccc1)NC(=O)[C@@H](NC(=O)[C@H](CCC(N)=O)NC(=O)[C@H](CCC(N)=O)NC(=O)[C@@H]1CCCN1C(=O)[C@H](CCCCN)NC(=O)[C@@H]1CCCN1C(=O)[C@@H](N)CCCN=C(N)N)[C@H](C)c1ccccc1)C(N)=O`, 0.54 nM; in that of `CSCC[C@H](NC(=O)[C@H](CC(C)C)NC(=O)CNC(=O)[C@@H](NC(=O)[C@@H](NC(=O)[C@H](CCC(N)=O)NC(=O)[C@H](CCC(N)=O)NC(=O)[C@@H]1CCCN1C(=O)[C@H](CCCCN)NC(=O)[C@@H]1CCCN1C(=O)[C@@H](N)CCCN=C(N)N)[C@@H](C)c1ccccc1)[C@@H](C)c1ccccc1)C(N)=O`, 0.18 nM.

In the case of `CSCC[C@H](NC(=O)[C@H](CC(C)C)NC(=O)CNC(=O)[C@@H](NC(=O)[C@@H](NC(=O)[C@H](CCC(N)=O)NC(=O)[C@H](CCC(N)=O)NC(=O)[C@@H]1CCCN1C(=O)[C@H](CCCCN)NC(=O)[C@@H]1CCCN1C(=O)[C@@H](N)CCCN=C(N)N)[C@H](C)c1ccccc1)[C@H](C)c1ccccc1)C(N)=O`, the response was half-maximal at 10 nM (EC50).

Source of the values: ChEMBL document CHEMBL1128422 (J Med Chem, 1995).
